Article PMC6429459, “The HslV Protease from Leishmania major and Its Activation by C-terminal HslU Peptides” (International Journal of Molecular Sciences, 2019)
Entries after “also recorded” stand apart in the source; their conditions may differ. Numbered stars: 1 amine (or outer) side, 2 acyl side, 3 side chain; on linkers, the order of the positions; unused ones are H or OH. Square brackets hold non-standard residues; d marks the D form. Peptide text beside a SMILES is read from it. * marks the point of attachment. AMC = Cc1cc(=O)oc2cc(N*)ccc12; Suc = O=C(CCC(=O)[*:2])[*:1]; Cbz = O=C(OCc1ccccc1)*; AEEA = NCCOCCOCC(=O)O

Tests used:
[1] = Solubility in aqueous assay solutions (observation); settings: aqueous assay conditions, peptide concentrations in the millimolar range; in words
recombinant LmHslV [2] = assay: LmHslV peptidase activation by HslU C-terminal peptides, substrate Z-EVNL-AMC (JMV4482); type: biochemical, Leishmania major; settings: for Potency of LmHslV activation relative to LmC12-U2 / LmHslV activation relative to reference peptide 10 (LmC12-U2): LmHslV 75.2 nM, Figure 3; for LmHslV activation relative to reference peptide 10 (LmC12-U2): initial velocity normalised to 10 = 100%; for LmHslV activation, Ala-scan, D-scan and truncations, relative to LmC12-U2: LmHslV 2 μg, 30 min at 37 °C, JMV4482 (Z-EVNL-AMC) 100 μM, Figure 4
Protocol: (§1) Activity assay: The peptidase activity of recombinant LmHslV was assessed by measuring the fluorescence of AMC released after hydrolysis of the fluorogenic substrates Z-GGL-AMC or JMV4482 (Z-EVNL-AMC), 100 µM. LmHslV activation was obtained by addition of activating peptides (see type and concentration in the figure legends). Activity buffer: 25 mM Tris-HCl pH 8.0, 1 mM DTT, 0.5 mM EDTA and 5 mM MgCl2. Most of the experiments were performed in a final volume of 50 µL in black 96-well microplates (Fisher Scientific, Illkirch, France. Fluorescence was measured using a spectrofluorimeter (BIO-TEK Instrument, Inc., Winooski, VT, USA): filters 360/340 for excitation and 460/440 for emission.
Figure 3 Both peptides derived from the C-terminal end of either LmHslU1 or LmHslU2 and analogues from other microorganisms are able to support LmHslV activation. LmHslV (75,2nM) was incubated at 37 °C with the peptide substrate Z-EVNL-AMC (100 μM) in the presence of peptides 8–11 and 1–15 (500 μM). A scrambled version of LmC12-U2 (44) was also included. The fluorescence of the free AMC group, proportional to the activity of the sample, was measured at 2 min. intervals.
Figure 4 Sequence requirements for activation of LmHslV by C-terminal LmHslU2 peptides. (A) Alascan. Percentage of initial velocity relative to compound LmC12-U2. Fluorescence was measured for 30 min incubation at 37 °C of LmHslV (2 μg) with 100 μM JMV4482 (Z-EVNL-AMC) in the presence of 500 μM peptides. (B) D-scan. Percentage of initial velocity relative to compound LmC12-U2. Activity was measured as in (A). (C) Truncated peptides. Percentage of activity relative to compound LmC12-U2, measured as in (A).
Figure 5 Effect of conformational constraints on HslV activation by HslU C-terminal peptides. HslV activity was measured in the presence of various cyclic analogues of LmC12-U2 and LmC9-U2. Values are expressed as percentage of initial velocity relative to compound LmC12-U2.
Figure S3. Effect of LmC12-U2 dimerization. LmHslV has been incubated at 37°C for 30 min with […]
the substrate Z-EVNL-AMC (100µM). The fluorescence generated by the cleavage of the substrate was recorded at 5 min intervals. The dotted line represents the ratio at each time point between the fluorescence values obtained with the two peptides.
(also on this page, place not known: dimerization . ( 12), Di-C12 / C12 Fluorescence (arbitrary unit) Ratio)

[3] = Circular dichroism, α-helix content from θ at 222 nm; type: physicochemical; settings: for Helicity%: 25 mM Tris-HCl pH 8.0, 20 °C, 100% helicity for θ = −36,000; for θmre at 222 nm: 25 mM Tris-HCl pH 8.0, around 200 μM peptide, 20 °C, 1 mm cuvette, 3 scans
Protocol: CD spectra (Figure S2) were recorded on a JASCO J-815 spectropolarimeter from 190 to 260 nm (data pitch of 0.1 nm, continuous scanning mode, 200 nm/min, 3 scans) at 20 °C, using a 1 mm path length cuvette. Baseline was corrected by subtracting the background from the sample spectrum.
Peptides were solubilised in 50 mM Tris-HCl, pH 8.0 buffer at an estimated concentration of 400 μM according to their apparent molecular mass (i.e. M + xTFA with x = number of basic groups). The solutions were then diluted twice (25 mM Tris and around 200 μM peptides final concentrations) with: […]

LmHslV = assay: Degradation of fluorogenic substrates by LmC12-U2-activated LmHslV; type: biochemical, Leishmania major; settings: LmHslV 75.2 nM, 37 °C, substrate 100 μM, activating peptide LmC12-U2 500 μM; Figure 2; in words
Protocol: as §1
Figure 2 Degradation of different fluorogenic substrates by LmHslV. LmHslV (75.2 nM) was incubated at 37 °C with different fluorogenic substrates (100 μM) in the presence of the activating peptide LmC12-U2 (500 μM). The fluorescence of the free AMC group, proportional to the activity of the sample, was measured at 2 min. intervals. With each substrate, no activity was measured in the absence of activating peptide: for the sake of clarity, only the negative control values obtained with the substrate ZGGL-AMC are shown.

recombinant LmHslV [4] = assay: LmHslV peptidase activation by HslU C-terminal peptides, substrate Z-GGL-AMC; type: biochemical, Leishmania major; settings: in words; for Activation of LmHslV (AMC fluorescence liberated per minute): LmHslV 300 nM, 37 °C, Z-GGL-AMC 100 μM, peptide 2.2 mM, read every 15 min for 2 h, mean of two replicates, Figure 1
Protocol: as §1
Figure 1 Activation of LmHslV by HslU-derived peptides. (A) Activation of LmHslV by peptides corresponding to the 8 C-terminal residues of LmHslU1 (compound 1) and U2 (compound 4). LmHslV (300 nM) was incubated at 37 °C with the peptide substrate Z-GGL-AMC (100μM) in the presence of vehicle (left) or 2.2 mM of the peptides H-LmC8-U1 or Ac-LmC8-U2. The fluorescence of the free AMC group liberated by hydrolysis of the substrate, which is proportional to the proteolytic activity of the sample, was measured every 15 min for 2 h. The activity is calculated as fluorescence units liberated by the minute during the linear period of the assay. The values are the mean of two experimental replicates for a representative experiment; errors bars represent deviation from the mean of the values. (B) LmHslV can also be activated by octapeptides derived from the C-terminus of […] from E. coli. Assays were performed as in (A), using compounds 4 (Ac-LmC8-U2), 6 (H-EcC8-U) and 7 (Ac-EcC8-U).

[5] = substrate Z-EVNL-AMC, Figure 5, in words
[6] = 37 °C, Z-EVNL-AMC 100 μM, peptide 500 μM
[7] = 37 °C, Z-EVNL-AMC 100 μM, peptide 500 μM, in words

## CC[C@H](C)[C@H](NC(=O)[C@H](Cc1ccccc1)NC(=O)[C@H](CCCCN)NC(=O)[C@H](CCCCN)NC(=O)[C@@H](NC(=O)[C@H](CC(=O)O)NC(=O)[C@@H](NC(=O)[C@H](CCCCN)NC(=O)[C@H](CCCCN)NC(=O)[C@@H](NC(=O)[C@H](CCSC)NC(=O)COCCOCCNC(=O)[C@H](N)CCCNC(=N)N)C(C)C)C(C)C)[C@@H](C)CC)C(=O)N[C@@H](CC(C)C)C(=O)O [Compound 8] (H-[dR][AEEA]MVKKVDIKKFIL-OH)
[1]
  Solubility of activating peptide: significantly more soluble than C8-U1

## H-arg-O2Oc-Leu-Gln-Lys-c[Asp-Val-Asn-Leu-Lys]-Lys-Tyr-Leu-Leu-OH (sidechain bridge or staple) [Compound 37]
Recombinant LmHslV [2]; [5]
  LmHslV activation by cyclic analogues relative to reference peptide 10: the more potent cyclic analogue
[3]; 0% TFE
  Helicity%: 5%
  θmre at 222 nm: −1626 deg.cm^2.dmol^−1
[3]; 25% TFE
  Helicity%: 17%
  θmre at 222 nm: −6143 deg.cm^2.dmol^−1
[3]; 50% TFE
  θmre at 222 nm: −7628 deg.cm^2.dmol^−1

## Suc-LLVY-{AMC}
LmHslV
  Degradation of fluorogenic substrate by activated LmHslV: degraded by peptide-activated LmHslV

## H-arg-O2Oc-Phe-Ile-Lys-Gln-Tyr-Asp-Leu-Lys-Lys-Tyr-Ile-Ile-OH [Compound 14]
Recombinant LmHslV [2]; [6]
  Potency of LmHslV activation relative to LmC12-U2: 1.5 fold

## H-VDIKKFIL-OH [Compound 1]
Recombinant LmHslV [4]
  Activation of LmHslV (AMC fluorescence liberated per minute): able to activate the protease

## H-arg-O2Oc-Leu-Gln-Lys-c[Asp-Val-Asn-Leu-Orn]-Lys-Tyr-Leu-Leu-OH (sidechain bridge or staple) [Compound 41]
Recombinant LmHslV [2]; [5]
  LmHslV activation by cyclic analogues relative to reference peptide 10: activity decreased

## H-arg-O2OC-Asn-Val-Asn-Leu-Ala-Lys-Tyr-Leu-Leu-OH [Compound 29]
[3]; 0% TFE
  Helicity%: 5%
  θmre at 222 nm: −1711 deg.cm^2.dmol^−1
[3]; 25% TFE
  Helicity%: 11%
  θmre at 222 nm: −4130 deg.cm^2.dmol^−1
[3]; 50% TFE
  Helicity%: 13%
  θmre at 222 nm: −4733 deg.cm^2.dmol^−1

## Ac-EDLSRFIL-OH [Compound 7]
Recombinant LmHslV [4]
  Activation of LmHslV (AMC fluorescence liberated per minute): also found to activate LmHslV

## H-arg-O2Oc-Met-Val-Lys-Lys-Val-Asp-Ile-Lys-Lys-Tyr-Ile-Leu-OH [Compound 9]
Recombinant LmHslV [2]; [7]
  LmHslV activation relative to reference peptide 10 (LmC12-U2): increase in activity; also recorded: large increase in potency

## H-arg-O2Oc-Asn-Leu-Tyr-Lys-Leu-Val-Gln-Leu-Leu-Asn-Lys-Ala-OH [Compound 44]
Recombinant LmHslV [2]; [7]
  LmHslV activation relative to reference peptide 10 (LmC12-U2): no activity

## 1,2,3-Triazole-1,4 = [CH2CH2CO-(O2Oc)3-Leu-Gln-Lys-Asn-Val-Asn-Leu-Ala-Lys-Tyr-Leu-Leu-OH]2 [Compound 12]
Recombinant LmHslV [2]; LmHslV, 37 °C, 30 min, peptide 550 μM, Z-EVNL-AMC 100 μM, Figure S3, in words
  HslV activity with dimer relative to monomer 10: about twice that reached with the monomer

## H-arg-O2Oc-Leu-Val-Ala-Asp-Glu-Asp-Leu-Ser-Arg-Phe-Ile-Leu-OH [Compound 15]
Recombinant LmHslV [2]; [7]
  LmHslV activation relative to reference peptide 10 (LmC12-U2): as potent as LmC12-U2

## H-arg-O2Oc-Leu-Gln-Lys-Asn-Val-Asn-Leu-Ala-Lys-Tyr-Leu-Leu-OH [Compound 10]
Recombinant LmHslV [2]; peptide 500 μM, in words
  LmHslV activation, Ala-scan, D-scan and truncations, relative to LmC12-U2: by far the most potent activator
Recombinant LmHslV [4]; substrate Z-GGL-AMC, preliminary experiments
  Activation of LmHslV compared with LmC8-U2 peptide 4: much more efficiently than the LmC8-U2 peptide 4

## Ac-VNLAKYLL-OH [Compound 4]
Recombinant LmHslV [4]
  Activation of LmHslV (AMC fluorescence liberated per minute): robust activation

## H-arg-O2Oc-Leu-Met-Asn-Asn-Ile-Asp-Leu-Ala-Lys-Tyr-Ile-Leu-OH [Compound 13]
Recombinant LmHslV [2]; [6]
  Potency of LmHslV activation relative to LmC12-U2: twice

## H-arg-O2Oc-Leu-Gln-Lys-Asn-Val-Asn-Leu-Ala-Lys-Phe-Leu-Leu-OH [Compound 11]
Recombinant LmHslV [2]; [7]
  LmHslV activation relative to reference peptide 10 (LmC12-U2): decreased activity; also recorded: reverse effect

## H-arg-O2Oc-c[Asp-Val-Asn-Leu-Lys]-Lys-Tyr-Leu-Leu-OH (sidechain bridge or staple) [Compound 43]
Recombinant LmHslV [2]; [5]
  LmHslV activation by cyclic analogues relative to reference peptide 10: almost as active as the reference peptide 10; also recorded: did not reduce the activity compared to LmC12-U2 (10)
[3]; 0% TFE
  Helicity%: 6%
  θmre at 222 nm: −2225 deg.cm^2.dmol^−1
[3]; 25% TFE
  Helicity%: 14%
  θmre at 222 nm: −5026 deg.cm^2.dmol^−1
[3]; 50% TFE
  Helicity%: 14%
  θmre at 222 nm: −5140 deg.cm^2.dmol^−1

## H-arg-O2Oc-Leu-Gln-Lys-c[asp-Val-Asn-Leu-lys]-Lys-Tyr-Leu-Leu-OH (sidechain bridge or staple) [Compound 40]
Recombinant LmHslV [2]; cyclic analogues, substrate Z-EVNL-AMC, Figure 5
  Relative potency: percentage of initial velocity relative to LmC12-U2: 55%

## H-arg-O2Oc-Leu-Gln-Lys-Asn-Val-Asn-leu-Ala-Lys-Tyr-Leu-Leu-OH [Compound 23]
Recombinant LmHslV [2]; peptide 500 μM, in words
  LmHslV activation, Ala-scan, D-scan and truncations, relative to LmC12-U2: no activity

## H-arg-O2Oc-Leu-Gln-Lys-Asn-Val-Asn-Leu-ala-Lys-Tyr-Leu-Leu-OH [Compound 24]
Recombinant LmHslV [2]; peptide 500 μM, in words
  LmHslV activation, Ala-scan, D-scan and truncations, relative to LmC12-U2: residual activity
Recombinant LmHslV [2]; Z-EVNL-AMC 100 μM, peptide 500 μM, D-scan
  Decrease in activity relative to LmC12-U2: 80%

## Cbz-Gly-Gly-Leu-{AMC}
LmHslV
  Degradation of fluorogenic substrate by activated LmHslV: degraded by peptide-activated LmHslV

## H-arg-O2Oc-Leu-Gln-Lys-c[Asp-Val-Asn-Leu-Dap]-Lys-Tyr-Leu-Leu-OH (sidechain bridge or staple) [Compound 42]
Recombinant LmHslV [2]; [5]
  LmHslV activation by cyclic analogues relative to reference peptide 10: almost half as active as the reference peptide

## H-arg-O2Oc-Leu-Gln-Lys-c[Asp-Val-Asn-Leu-lys]-Lys-Tyr-Leu-Leu-OH (sidechain bridge or staple) [Compound 39]
Recombinant LmHslV [2]; [5]
  LmHslV activation by cyclic analogues relative to reference peptide 10: much more potent than the linear compound 24

## H-EDLSRFIL-OH [Compound 6]
Recombinant LmHslV [4]
  Activation of LmHslV (AMC fluorescence liberated per minute): also found to activate LmHslV
